# Assay results from the supplement of paper PMC12463676, “Small-molecule dissolution of stress granules by redox modulation benefits ALS models” (Nature Chemical Biology, 2025).
# Columns and labels:
# potassium arsenate = compound: O=[As]([O-])(O)O.[K+] [potassium arsenate]; assay: thermal stability z-score vs DMSO; higher = more thermally stabilized by treatment; conditions: HeLa; arsenate concentration 1 mM
# Experimental: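 Cellular thermal proteome profiling in HeLa cells treated with 1 mM arsenate for 1 h (DMSO pretreatment), heated to ten temperatures (37-66.3 °C). Soluble protein was quantified by TMT mass spectrometry relative to DMSO controls; the thermal stability score was transformed to a z-score; mean of n = 3 experiments.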
# lipoamide = compound: NC(=O)CCCCC1CCSS1 [lipoamide]; assay: as above; conditions: HeLa, lipoamide concentration 100 µM
# Experimental: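 Cellular thermal proteome profiling in HeLa cells. Cells were treated with 100 µM lipoamide for 1 h, with or without 1 mM arsenate for a further 1 h, then heated to ten temperatures (37-66.3 °C), and soluble protein was quantified by TMT mass spectrometry relative to 0.1% DMSO controls. The thermal stability score (sum of log2 fold changes minus the abundance score) was transformed to a z-score; mean of n = 3 experiments.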
# [1] = arsenate co-treatment: 1 mM arsenate 1 h
# 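Further: each temperature applied for 3 min, abundance score taken as mean log2 fold change at the two lowest temperatures, z-score obtained by mean subtraction and division by SD.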
# UniProt Q5VWQ8, sequence (Q5VWQ8 whole entry): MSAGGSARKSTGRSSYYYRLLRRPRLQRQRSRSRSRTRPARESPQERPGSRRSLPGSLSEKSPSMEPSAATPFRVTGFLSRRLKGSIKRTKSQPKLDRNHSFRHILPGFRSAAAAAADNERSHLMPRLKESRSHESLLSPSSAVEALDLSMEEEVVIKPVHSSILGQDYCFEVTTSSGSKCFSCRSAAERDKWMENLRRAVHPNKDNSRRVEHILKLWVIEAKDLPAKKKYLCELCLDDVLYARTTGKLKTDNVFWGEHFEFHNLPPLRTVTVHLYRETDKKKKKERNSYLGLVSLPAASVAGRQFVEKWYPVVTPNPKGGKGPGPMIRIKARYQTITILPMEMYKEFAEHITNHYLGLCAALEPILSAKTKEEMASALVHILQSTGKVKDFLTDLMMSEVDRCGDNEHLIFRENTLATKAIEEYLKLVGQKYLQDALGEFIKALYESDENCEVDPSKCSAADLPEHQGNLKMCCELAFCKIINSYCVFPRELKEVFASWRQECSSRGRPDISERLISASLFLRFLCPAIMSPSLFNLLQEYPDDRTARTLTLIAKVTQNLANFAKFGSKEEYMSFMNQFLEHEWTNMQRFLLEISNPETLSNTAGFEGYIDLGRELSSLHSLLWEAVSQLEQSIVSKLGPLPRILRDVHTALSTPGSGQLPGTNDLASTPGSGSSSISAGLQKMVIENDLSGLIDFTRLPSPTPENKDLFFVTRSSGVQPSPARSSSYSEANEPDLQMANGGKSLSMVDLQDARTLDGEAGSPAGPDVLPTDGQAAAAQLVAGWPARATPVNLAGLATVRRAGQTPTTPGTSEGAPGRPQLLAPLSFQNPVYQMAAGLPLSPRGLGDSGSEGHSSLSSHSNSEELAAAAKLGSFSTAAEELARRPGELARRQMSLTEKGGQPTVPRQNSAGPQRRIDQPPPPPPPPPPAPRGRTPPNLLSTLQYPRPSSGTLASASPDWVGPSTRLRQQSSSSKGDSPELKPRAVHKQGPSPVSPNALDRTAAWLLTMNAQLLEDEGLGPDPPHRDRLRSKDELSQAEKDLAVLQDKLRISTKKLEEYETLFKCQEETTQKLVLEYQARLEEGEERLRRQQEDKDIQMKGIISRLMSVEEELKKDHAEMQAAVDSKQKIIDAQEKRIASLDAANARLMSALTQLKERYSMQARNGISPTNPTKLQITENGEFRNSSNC
# UniProt Q8N568, sequence (Q8N568 whole entry): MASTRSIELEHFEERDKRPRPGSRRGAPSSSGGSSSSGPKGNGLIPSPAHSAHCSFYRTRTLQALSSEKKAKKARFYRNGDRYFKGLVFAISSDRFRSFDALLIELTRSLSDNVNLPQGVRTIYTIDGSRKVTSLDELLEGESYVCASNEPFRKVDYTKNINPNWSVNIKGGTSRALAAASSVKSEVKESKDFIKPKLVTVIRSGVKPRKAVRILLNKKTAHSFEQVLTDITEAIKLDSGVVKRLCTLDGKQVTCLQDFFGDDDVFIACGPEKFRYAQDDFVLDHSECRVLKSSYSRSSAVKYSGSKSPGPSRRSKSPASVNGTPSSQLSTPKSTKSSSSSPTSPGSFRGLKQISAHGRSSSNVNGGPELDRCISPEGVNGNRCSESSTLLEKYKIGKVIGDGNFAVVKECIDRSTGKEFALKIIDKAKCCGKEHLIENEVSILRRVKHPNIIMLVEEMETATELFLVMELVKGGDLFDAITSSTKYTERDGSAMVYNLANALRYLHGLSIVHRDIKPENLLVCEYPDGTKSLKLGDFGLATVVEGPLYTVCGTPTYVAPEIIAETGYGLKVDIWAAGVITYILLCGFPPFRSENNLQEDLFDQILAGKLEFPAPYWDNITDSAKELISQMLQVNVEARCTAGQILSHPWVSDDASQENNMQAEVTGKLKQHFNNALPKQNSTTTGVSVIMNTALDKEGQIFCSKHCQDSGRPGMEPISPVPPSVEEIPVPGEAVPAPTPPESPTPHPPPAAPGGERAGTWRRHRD
# UniProt P07108, sequence (P07108 whole entry): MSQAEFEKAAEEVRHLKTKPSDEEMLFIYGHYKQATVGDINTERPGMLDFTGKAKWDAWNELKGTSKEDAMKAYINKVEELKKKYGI
# UniProt Q9UJU6, sequence (Q9UJU6 whole entry): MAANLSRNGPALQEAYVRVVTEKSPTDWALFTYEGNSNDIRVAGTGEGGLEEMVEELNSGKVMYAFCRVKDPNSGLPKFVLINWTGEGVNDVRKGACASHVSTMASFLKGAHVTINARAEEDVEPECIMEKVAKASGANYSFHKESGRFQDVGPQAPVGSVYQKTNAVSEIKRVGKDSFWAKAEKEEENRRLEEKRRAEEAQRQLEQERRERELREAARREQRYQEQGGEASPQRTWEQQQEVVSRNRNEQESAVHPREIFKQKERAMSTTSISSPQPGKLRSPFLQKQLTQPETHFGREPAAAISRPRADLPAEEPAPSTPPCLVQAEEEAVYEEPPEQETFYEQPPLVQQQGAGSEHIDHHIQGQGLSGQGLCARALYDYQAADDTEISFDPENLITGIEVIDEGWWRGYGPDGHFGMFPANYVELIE
# UniProt Q66K64, sequence (Q66K64 whole entry): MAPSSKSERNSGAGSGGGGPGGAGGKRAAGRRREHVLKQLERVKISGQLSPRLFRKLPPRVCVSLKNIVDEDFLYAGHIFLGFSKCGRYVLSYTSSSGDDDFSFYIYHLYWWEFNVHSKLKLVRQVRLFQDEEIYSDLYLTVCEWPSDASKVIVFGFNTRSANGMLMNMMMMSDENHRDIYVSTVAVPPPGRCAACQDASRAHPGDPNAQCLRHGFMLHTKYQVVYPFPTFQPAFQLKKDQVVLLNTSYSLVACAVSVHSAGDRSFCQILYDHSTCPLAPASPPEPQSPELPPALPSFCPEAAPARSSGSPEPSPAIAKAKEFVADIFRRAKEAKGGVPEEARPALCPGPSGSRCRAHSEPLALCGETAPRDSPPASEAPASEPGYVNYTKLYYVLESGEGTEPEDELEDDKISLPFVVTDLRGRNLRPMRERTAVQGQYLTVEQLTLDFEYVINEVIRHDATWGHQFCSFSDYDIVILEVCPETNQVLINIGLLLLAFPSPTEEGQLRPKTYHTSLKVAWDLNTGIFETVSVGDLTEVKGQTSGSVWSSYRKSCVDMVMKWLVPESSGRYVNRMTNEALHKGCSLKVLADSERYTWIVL
# UniProt Q14118, sequence (Q14118 whole entry): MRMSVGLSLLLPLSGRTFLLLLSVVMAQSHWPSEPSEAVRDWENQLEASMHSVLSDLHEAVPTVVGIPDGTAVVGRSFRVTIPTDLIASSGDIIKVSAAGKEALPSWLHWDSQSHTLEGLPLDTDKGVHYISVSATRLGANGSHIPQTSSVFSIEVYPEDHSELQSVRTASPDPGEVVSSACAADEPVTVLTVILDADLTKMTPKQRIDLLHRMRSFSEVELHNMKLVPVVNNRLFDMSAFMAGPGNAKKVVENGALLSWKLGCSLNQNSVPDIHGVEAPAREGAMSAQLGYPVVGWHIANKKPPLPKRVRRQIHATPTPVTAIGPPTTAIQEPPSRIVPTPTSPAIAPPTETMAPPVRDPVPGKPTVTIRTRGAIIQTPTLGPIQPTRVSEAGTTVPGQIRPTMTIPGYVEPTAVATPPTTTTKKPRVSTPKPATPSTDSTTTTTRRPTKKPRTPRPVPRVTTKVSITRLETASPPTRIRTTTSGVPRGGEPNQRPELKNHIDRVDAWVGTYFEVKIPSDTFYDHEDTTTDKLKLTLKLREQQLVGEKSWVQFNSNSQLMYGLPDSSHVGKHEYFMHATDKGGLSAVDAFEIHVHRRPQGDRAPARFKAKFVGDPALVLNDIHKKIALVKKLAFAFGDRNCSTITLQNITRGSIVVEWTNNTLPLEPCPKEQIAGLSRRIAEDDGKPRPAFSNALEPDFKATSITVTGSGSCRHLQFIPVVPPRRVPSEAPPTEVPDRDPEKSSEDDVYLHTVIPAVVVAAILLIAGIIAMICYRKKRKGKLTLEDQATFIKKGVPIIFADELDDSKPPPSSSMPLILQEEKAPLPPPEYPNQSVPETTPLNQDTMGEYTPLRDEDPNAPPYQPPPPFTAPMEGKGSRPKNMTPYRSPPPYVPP
# UniProt Q96EP5, sequence (Q96EP5 whole entry): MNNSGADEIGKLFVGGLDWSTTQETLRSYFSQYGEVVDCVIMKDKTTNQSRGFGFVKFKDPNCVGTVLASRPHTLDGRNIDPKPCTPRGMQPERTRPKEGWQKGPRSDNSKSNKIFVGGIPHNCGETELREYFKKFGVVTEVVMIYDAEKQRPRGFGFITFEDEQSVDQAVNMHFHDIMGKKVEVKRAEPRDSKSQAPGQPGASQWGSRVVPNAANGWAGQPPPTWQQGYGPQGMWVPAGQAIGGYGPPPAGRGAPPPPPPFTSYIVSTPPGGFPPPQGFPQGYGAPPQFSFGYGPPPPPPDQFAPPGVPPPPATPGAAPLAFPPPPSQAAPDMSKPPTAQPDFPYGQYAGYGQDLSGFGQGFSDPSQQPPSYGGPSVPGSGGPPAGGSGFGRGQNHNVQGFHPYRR
# UniProt P27707, sequence (P27707 whole entry, looked up): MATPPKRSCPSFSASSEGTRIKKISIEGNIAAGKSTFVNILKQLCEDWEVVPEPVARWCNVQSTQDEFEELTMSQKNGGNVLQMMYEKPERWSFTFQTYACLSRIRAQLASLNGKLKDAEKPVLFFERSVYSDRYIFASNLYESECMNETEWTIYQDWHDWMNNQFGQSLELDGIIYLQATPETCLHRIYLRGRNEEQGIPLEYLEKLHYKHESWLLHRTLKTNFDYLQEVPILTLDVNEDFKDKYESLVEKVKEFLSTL
# UniProt Q7Z4W1, sequence (Q7Z4W1 whole entry): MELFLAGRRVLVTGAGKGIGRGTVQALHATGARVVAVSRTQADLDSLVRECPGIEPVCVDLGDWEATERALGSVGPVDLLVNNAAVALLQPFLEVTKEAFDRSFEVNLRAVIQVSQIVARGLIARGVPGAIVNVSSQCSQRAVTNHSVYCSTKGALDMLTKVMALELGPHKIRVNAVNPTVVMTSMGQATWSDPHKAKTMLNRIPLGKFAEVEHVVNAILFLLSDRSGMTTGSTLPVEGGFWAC
# UniProt P51397, sequence (P51397 whole entry): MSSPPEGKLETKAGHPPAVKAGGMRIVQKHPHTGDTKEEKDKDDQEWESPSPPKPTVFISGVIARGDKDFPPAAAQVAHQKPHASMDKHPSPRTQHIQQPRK
target,measurement,setting,value
CYP20A1 (UniProt Q6UW02),thermal stability z-score,potassium arsenate,0.0905
same,thermal stability z-score,lipoamide; [1],0.107
same,thermal stability z-score,lipoamide; arsenate co-treatment: none,0.633
CYP51A1 (UniProt Q16850),thermal stability z-score,potassium arsenate,0.803
same,thermal stability z-score,lipoamide; [1],-0.665
same,thermal stability z-score,lipoamide; arsenate co-treatment: none,-0.0953
CYR61 (UniProt O00622),thermal stability z-score,potassium arsenate,-4.51
same,thermal stability z-score,lipoamide; [1],-1.72
same,thermal stability z-score,lipoamide; arsenate co-treatment: none,-1.47
CYSTM1 (UniProt Q9H1C7),thermal stability z-score,potassium arsenate,-1.22
same,thermal stability z-score,lipoamide; [1],-0.79
same,thermal stability z-score,lipoamide; arsenate co-treatment: none,0.912
CYTH1 (UniProt Q15438),thermal stability z-score,potassium arsenate,0.0222
same,thermal stability z-score,lipoamide; [1],-0.178
same,thermal stability z-score,lipoamide; arsenate co-treatment: none,0.00951
DAAM1 (UniProt Q9Y4D1),thermal stability z-score,potassium arsenate,0.17
same,thermal stability z-score,lipoamide; [1],-0.0152
same,thermal stability z-score,lipoamide; arsenate co-treatment: none,-0.226
DAB2 (UniProt P98082),thermal stability z-score,potassium arsenate,1.73
same,thermal stability z-score,lipoamide; [1],0.216
same,thermal stability z-score,lipoamide; arsenate co-treatment: none,0.404
DAB2IP (UniProt Q5VWQ8),thermal stability z-score,potassium arsenate,-0.398
same,thermal stability z-score,lipoamide; [1],-0.101
same,thermal stability z-score,lipoamide; arsenate co-treatment: none,-0.023
DAG1 (UniProt Q14118),thermal stability z-score,potassium arsenate,0.184
same,thermal stability z-score,lipoamide; [1],-0.341
same,thermal stability z-score,lipoamide; arsenate co-treatment: none,-0.236
DAGLB (UniProt Q8NCG7),thermal stability z-score,potassium arsenate,0.0163
same,thermal stability z-score,lipoamide; [1],0.268
same,thermal stability z-score,lipoamide; arsenate co-treatment: none,0.278
DAP3 (UniProt P51398),thermal stability z-score,potassium arsenate,0.132
same,thermal stability z-score,lipoamide; [1],-0.597
same,thermal stability z-score,lipoamide; arsenate co-treatment: none,-0.135
DAP (UniProt P51397),thermal stability z-score,potassium arsenate,-0.0556
same,thermal stability z-score,lipoamide; [1],1.03
same,thermal stability z-score,lipoamide; arsenate co-treatment: none,0.89
DAPK3 (UniProt O43293),thermal stability z-score,potassium arsenate,0.228
same,thermal stability z-score,lipoamide; [1],-0.0576
same,thermal stability z-score,lipoamide; arsenate co-treatment: none,-0.0876
DARS2 (UniProt Q6PI48),thermal stability z-score,potassium arsenate,-1.93
same,thermal stability z-score,lipoamide; [1],-0.726
same,thermal stability z-score,lipoamide; arsenate co-treatment: none,-0.586
DARS (UniProt P14868),thermal stability z-score,potassium arsenate,-0.593
same,thermal stability z-score,lipoamide; [1],0.186
same,thermal stability z-score,lipoamide; arsenate co-treatment: none,-0.0144
DAXX (UniProt Q9UER7),thermal stability z-score,potassium arsenate,-0.391
same,thermal stability z-score,lipoamide; [1],-0.0224
same,thermal stability z-score,lipoamide; arsenate co-treatment: none,-0.149
DAZAP1 (UniProt Q96EP5),thermal stability z-score,potassium arsenate,0.243
same,thermal stability z-score,lipoamide; [1],1.15
same,thermal stability z-score,lipoamide; arsenate co-treatment: none,1.07
DBI (UniProt P07108),thermal stability z-score,potassium arsenate,-0.228
same,thermal stability z-score,lipoamide; [1],1.09
same,thermal stability z-score,lipoamide; arsenate co-treatment: none,0.274
DBN1 (UniProt Q16643),thermal stability z-score,potassium arsenate,-0.684
same,thermal stability z-score,lipoamide; [1],0.625
same,thermal stability z-score,lipoamide; arsenate co-treatment: none,-0.407
DBNL (UniProt Q9UJU6),thermal stability z-score,potassium arsenate,0.99
same,thermal stability z-score,lipoamide; [1],0.473
same,thermal stability z-score,lipoamide; arsenate co-treatment: none,0.208
DBR1 (UniProt Q9UK59),thermal stability z-score,potassium arsenate,0.5
same,thermal stability z-score,lipoamide; [1],0.0885
same,thermal stability z-score,lipoamide; arsenate co-treatment: none,-0.174
DBT (UniProt P11182),thermal stability z-score,potassium arsenate,-1.75
same,thermal stability z-score,lipoamide; [1],-0.65
same,thermal stability z-score,lipoamide; arsenate co-treatment: none,-0.0292
DCAF6 (UniProt Q58WW2),thermal stability z-score,potassium arsenate,-0.72
same,thermal stability z-score,lipoamide; [1],-0.747
same,thermal stability z-score,lipoamide; arsenate co-treatment: none,-0.879
DCAF7 (UniProt P61962),thermal stability z-score,potassium arsenate,1.2
same,thermal stability z-score,lipoamide; [1],0.278
same,thermal stability z-score,lipoamide; arsenate co-treatment: none,0.939
DCAF10 (UniProt Q5QP82),thermal stability z-score,potassium arsenate,0.0678
same,thermal stability z-score,lipoamide; [1],0.0128
same,thermal stability z-score,lipoamide; arsenate co-treatment: none,0.566
DCAF11 (UniProt Q8TEB1),thermal stability z-score,potassium arsenate,-0.996
same,thermal stability z-score,lipoamide; [1],0.101
same,thermal stability z-score,lipoamide; arsenate co-treatment: none,0.343
DCAF12 (UniProt Q5T6F0),thermal stability z-score,potassium arsenate,0.154
same,thermal stability z-score,lipoamide; [1],0.118
same,thermal stability z-score,lipoamide; arsenate co-treatment: none,0.0205
DCAF13 (UniProt Q9NV06),thermal stability z-score,potassium arsenate,1.25
same,thermal stability z-score,lipoamide; [1],-0.43
same,thermal stability z-score,lipoamide; arsenate co-treatment: none,-0.325
DCAF15 (UniProt Q66K64),thermal stability z-score,potassium arsenate,-0.174
same,thermal stability z-score,lipoamide; [1],0.165
same,thermal stability z-score,lipoamide; arsenate co-treatment: none,-0.178
DCAKD (UniProt Q8WVC6),thermal stability z-score,potassium arsenate,0.214
same,thermal stability z-score,lipoamide; [1],-0.963
same,thermal stability z-score,lipoamide; arsenate co-treatment: none,-1.05
DCBLD2 (UniProt Q96PD2),thermal stability z-score,potassium arsenate,-0.505
same,thermal stability z-score,lipoamide; [1],0.0564
same,thermal stability z-score,lipoamide; arsenate co-treatment: none,0.109
DCK (UniProt P27707),thermal stability z-score,potassium arsenate,-5
same,thermal stability z-score,lipoamide; [1],0.519
same,thermal stability z-score,lipoamide; arsenate co-treatment: none,0.335
DCLK2 (UniProt Q8N568),thermal stability z-score,potassium arsenate,0.0241
same,thermal stability z-score,lipoamide; [1],-0.19
same,thermal stability z-score,lipoamide; arsenate co-treatment: none,0.0433
DCP1A (UniProt Q9NPI6),thermal stability z-score,potassium arsenate,-0.248
same,thermal stability z-score,lipoamide; [1],-0.2
same,thermal stability z-score,lipoamide; arsenate co-treatment: none,-0.107
DCP2 (UniProt Q8IU60),thermal stability z-score,potassium arsenate,-0.203
same,thermal stability z-score,lipoamide; [1],-0.0416
same,thermal stability z-score,lipoamide; arsenate co-treatment: none,0.195
DCPS (UniProt Q96C86),thermal stability z-score,potassium arsenate,-0.92
same,thermal stability z-score,lipoamide; [1],-0.92
same,thermal stability z-score,lipoamide; arsenate co-treatment: none,-0.621
DCTD (UniProt P32321),thermal stability z-score,potassium arsenate,-0.736
same,thermal stability z-score,lipoamide; [1],0.038
same,thermal stability z-score,lipoamide; arsenate co-treatment: none,-0.504
DCTN1 (UniProt Q14203),thermal stability z-score,potassium arsenate,0.369
same,thermal stability z-score,lipoamide; [1],-0.27
same,thermal stability z-score,lipoamide; arsenate co-treatment: none,-0.171
DCTN2 (UniProt Q13561),thermal stability z-score,potassium arsenate,0.914
same,thermal stability z-score,lipoamide; [1],0.321
same,thermal stability z-score,lipoamide; arsenate co-treatment: none,0.719
DCTN3 (UniProt O75935),thermal stability z-score,potassium arsenate,0.72
same,thermal stability z-score,lipoamide; [1],0.0144
same,thermal stability z-score,lipoamide; arsenate co-treatment: none,0.489
DCTN4 (UniProt Q9UJW0),thermal stability z-score,potassium arsenate,-0.11
same,thermal stability z-score,lipoamide; [1],-0.368
same,thermal stability z-score,lipoamide; arsenate co-treatment: none,-0.0931
DCTN5 (UniProt Q9BTE1),thermal stability z-score,potassium arsenate,-0.329
same,thermal stability z-score,lipoamide; [1],-0.414
same,thermal stability z-score,lipoamide; arsenate co-treatment: none,-0.0773
DCTN6 (UniProt O00399),thermal stability z-score,potassium arsenate,-0.333
same,thermal stability z-score,lipoamide; [1],-0.771
same,thermal stability z-score,lipoamide; arsenate co-treatment: none,-0.761
DCTPP1 (UniProt Q9H773),thermal stability z-score,potassium arsenate,0.499
same,thermal stability z-score,lipoamide; [1],1.22
same,thermal stability z-score,lipoamide; arsenate co-treatment: none,0.682
DCUN1D1 (UniProt Q96GG9),thermal stability z-score,potassium arsenate,0.0368
same,thermal stability z-score,lipoamide; [1],-0.437
same,thermal stability z-score,lipoamide; arsenate co-treatment: none,-0.535
DCUN1D4 (UniProt Q92564),thermal stability z-score,potassium arsenate,-0.0972
same,thermal stability z-score,lipoamide; [1],0.0389
same,thermal stability z-score,lipoamide; arsenate co-treatment: none,-0.0281
DCUN1D5 (UniProt Q9BTE7),thermal stability z-score,potassium arsenate,-0.507
same,thermal stability z-score,lipoamide; [1],-0.0389
same,thermal stability z-score,lipoamide; arsenate co-treatment: none,0.215
DCXR (UniProt Q7Z4W1),thermal stability z-score,potassium arsenate,0.528
same,thermal stability z-score,lipoamide; [1],0.346
same,thermal stability z-score,lipoamide; arsenate co-treatment: none,-0.203
DDA1 (UniProt Q9BW61),thermal stability z-score,potassium arsenate,0.665
same,thermal stability z-score,lipoamide; [1],0.456
same,thermal stability z-score,lipoamide; arsenate co-treatment: none,-0.211
DDAH1 (UniProt O94760),thermal stability z-score,potassium arsenate,0.259
same,thermal stability z-score,lipoamide; [1],0.568
same,thermal stability z-score,lipoamide; arsenate co-treatment: none,0.134
DDAH2 (UniProt O95865),thermal stability z-score,potassium arsenate,0.22
same,thermal stability z-score,lipoamide; [1],0.838
same,thermal stability z-score,lipoamide; arsenate co-treatment: none,0.743
DDB1 (UniProt Q16531),thermal stability z-score,potassium arsenate,-0.468
same,thermal stability z-score,lipoamide; [1],-0.479
same,thermal stability z-score,lipoamide; arsenate co-treatment: none,-0.519
DDB2 (UniProt Q92466),thermal stability z-score,potassium arsenate,0.0883
same,thermal stability z-score,lipoamide; [1],-0.684
same,thermal stability z-score,lipoamide; arsenate co-treatment: none,-1.2
DDHD1 (UniProt Q8NEL9),thermal stability z-score,potassium arsenate,0.0595
same,thermal stability z-score,lipoamide; [1],-0.143
same,thermal stability z-score,lipoamide; arsenate co-treatment: none,-0.142
DDHD2 (UniProt O94830),thermal stability z-score,potassium arsenate,-0.0424
same,thermal stability z-score,lipoamide; [1],0.3
same,thermal stability z-score,lipoamide; arsenate co-treatment: none,-0.141
